{
  "source": "patent US20230322781A1",
  "about": "(Northwestern University, priority 2020, published 2023)",
  "key": {"[1]": {"settings": "literature value (ref 34); cited from earlier work"}, "[2]": {"test": "Water solubility (qualitative statements)", "assay_type": "physicochemical", "settings": "H2O"}, "[3]": {"test": "1H NMR of equimolar mixture with CB[8]", "assay_type": "binding", "settings": "D2O, 298 K", "description": "The peaks in the spectrum were assigned on the basis of in-depth analyses of their 2D ^1H-^1H COSY and ROESY spectra. The chemical shifts of H-7, residing on the central phenylene groups, as well as H-5 and H-6, attached to the C═C double bonds, show (FIG. 2d) large upfield shifts (Δδ=−0.64, −0.43 and −1.12 for H-5, H-6, and H-7, respectively). While the protons on CB[8] display (FIG. 7) small upfield shifts (Δδ=−0.09, −0.11 and −0.13 for H-a, H-b, and H-c, respectively). […] Taken together, it can be concluded that, although OPVEBox^4+ and CBPQT^4+ have the same p-xylylene linkers, only OPVEBox^4+ can form ring-in-ring(s) complexes with CB[8] in aqueous solutions. […]\nAll solvents and reagents were obtained commercially and used without further purification unless noted otherwise. […] UV-Vis Absorption spectra were recorded in a conventional rectangular quartz cell (10×10×45 mm) on a UV-3600 Shimadzu spectrophotometer. Fluorescence spectra were measured in a rectangular quartz cell (10×10×45 mm) on a HORIBA FluoroMax-4 spectrometer, which was equipped with an integrating sphere for absolute fluorescence quantum yields determination and time-correlated single-photon counting (TCSPC) module for emission decays. […] Electrospray ionization-mass spectra (ESI-MS) were measured on Waters Synapt G2 mass spectrometer. […]"}, "[4]": {"test": "Isothermal titration calorimetry (ITC) with CB[8]", "assay_type": "binding", "settings": "1000 μM in syringe into CB[8] 50 μM; aqueous NaCl (1 mM), 298 K", "procedure": "All microcalorimetric titrations were performed in a thermostated TA Nano Isothermal Titration calorimeter at atmospheric pressure and 298 K. The samples were dissolved in an aqueous NaCl (1.0 mM) solution, in order to improve the solubility of CB[8], and the concentrations of sample were calibrated by UV-Vis absorption spectroscopy after filtered by a 0.45-filter. A solution of one reactant in a syringe was sequentially injected with stirring at 150 rpm into a solution of the other reactant in the sample cell with a constant volume of 185 μL. A representative titration curve is shown in FIG. 24, each titration of reactant into the sample cell gave an apparent reaction heat caused by the formation of the inclusion complex. The reaction heat decreases gradually until a balance was reached, whereupon only the dilution heat was measured. The net reaction heat was obtained by subtracting the dilution heat from the apparent reaction heat. The resulting data were analyzed with NanoAnalyze software using a 1:1 binding model to give the complex stability constant (Ka), standard molar reaction enthalpy (ΔH), and standard deviations. Generally, the first point of the titration curve was disregarded, as there is some liquid mixing near the tip of the injection needle before ITC run. […]\nThe value for K1 can be determined to be 5.8×10^7 M^−1 by analysis of the UV-Vis titration data. […]"}},
  "note": "“Also recorded” adds a separate entry of the source. Structures can show the parent of a compound that is named as a salt.",
  "data": [
    {"smiles": "CC12CC3CC(C)(C1)CC(N)(C3)C2", "note": "[memantine hydrochloride]", "values": [
      {"measurement": "binding affinity Ka for CB[8]", "setting": "[1]", "result": "8.3e+12", "unit": "M⁻¹"}
    ]},
    {"smiles": "O=C1N2CN3C(=O)N4CN5C(=O)N6CN7C(=O)N8CN9C(=O)N%10CN%11C(=O)N%12CN%13C(=O)N%14CN%15C(=O)N%16CN1C1C2N2CN%17C(=O)N(CN%18C(=O)N(CN%19C(=O)N(CN%20C(=O)N(CN%21C(=O)N(CN%22C(=O)N(CN%23C(=O)N(CN1C2=O)C%16C%15%23)C%14C%13%22)C%12C%11%21)C%10C9%20)C8C7%19)C6C5%18)C4C3%17", "note": "(stereo not shown) [CB[8], cucurbit[8]uril]", "values": [
      {"measurement": "water solubility", "setting": "[2]", "result": "poor water solubility; also recorded: low solubility"}
    ]},
    {"smiles": "c1cc2ccc1C[n+]1ccc(cc1)-c1cc[n+](cc1)Cc1ccc(cc1)C[n+]1ccc(cc1)-c1cc[n+](cc1)C2", "note": "[CBPQT^4+, cyclobis(paraquat-p-phenylene)]", "values": [
      {"measurement": "binding with CB[8] by 1H NMR", "setting": "[3]", "result": "may bind very weakly to the p-xylylene linkers"},
      {"measurement": "enthalpy change upon addition into CB[8]", "setting": "[4]", "result": "no obvious enthalpy change"}
    ]}
  ]
}
